The source of these data is patent publication US7129230B2, “Method and product for treating cancer in pets” (Nestec S.A., priority 2001, dated 2006).

“Also recorded” adds a separate entry of the source. Read-outs that look alike come from different tables or passages of the source.

The test system of one test is osteosarcoma cell lines. The following applies: four canine osteosarcoma cell lines; cited from earlier work.
Test [1] has as its system human and rat liver cancer cell lines. The following applies: cited from earlier work.
Test [2] relates to TGF-β mRNA in SCC 2/88 cells. Briefly: Northern blot analysis of TGF-β mRNA expression in SCC 2/88 cells. The test is classed as cell-based, canine. As to conditions: 10^−7 M, 0, 3, 6, 12 and 24 hrs.
The test system of test [3] is PTHrP production in human squamous cell lines. The following applies: cited from earlier work.
Test [4] concerns involucrin in SCC 2/88 cells. Put plainly: Cell differentiation: involucrin by SDS-PAGE and Western blot in SCC 2/88 cells. The test is classed as cell-based, canine. As to conditions: post-confluent cells, up to 7 days; for involucrin expression (anti-involucrin reactive bands) compared to vehicle: 10^−7 M; for involucrin expression (anti-involucrin reactive bands): 10^−9 M. On the procedure:
Cell differentiation. Involucrin was extracted from cultured SCC 2/88 cells grown in 175 cm2 culture flasks (Becton Dickinson, Franklin Lakes, N.J.) for one week. Post confluent cells were treated with either vehicle, 1,25(OH)2D3, EB 1089, or analog V at concentrations 10^−7 M and 10^−9 M for up to 7 days. Cells were washed and released from the culture flask with phosphate buffered saline containing 20 mM EDTA. Cells were disrupted with a Branson sonifier (Branson Ultrasonic Corporation, Danbury, Conn.) at a setting of 6 for 3×30 seconds and centrifuged at 100,000 G for 30 minutes at 10° C. The supernatant (cytosol) was made 10% in glycerol and 62.5 mM in Tris-HCl (pH 6.8) and heated for 10 minutes at 100° C. The denatured proteins were removed by centrifugation at 15,000 G for 15 minutes. Involucrin in the supernatant was collected stored at −70° C. until Western blot analysis was performed.
Extracted proteins (20 μg) were separated by electrophoresis through 7.5 % sodium dodecyl sulfate (SDS)-polyacrylamide gel, and transferred to nitrocellulose membrane with use of a semi-dry transferred technique (Bio-Rad laboratories, Hercules, Calif.). The membrane was then blocked in blocking solution (10% dry milk, 0.05% Tween 20 in phosphate buffered saline) overnight at 4° C. The preblocked membrane was incubated in mouse monoclonal antibody against involucrin (Research Diagnotics Inc., Flanders, N.J.) 1:500 for an hour and extensively washed in PBS (pH 7.4) containing 0.05% Tween 20. The blot was then incubated in goat anti-mouse IgG (horseradish peroxidase) (Bio-Rad laboratories, Hercules, Calif.) 1:500 for an hour. After further washing in phosphate buffered saline containing 0.05% Tween 20, the blot was developed for 1 minute in the LumiGLO Chemiluminescent substrate (Kirkegaard and Perry laboratories, Gaithersburg, Md.), and then exposed to x-ray film for 1–5 seconds. After exposure, the membrane was stripped and incubated with mouse monoclonal anti-β-actin (Sigma, Saint Louis, Mo.) to normalize for protein loading. AlphaImager™ Alpha Innotech Corporation, San Leandro) measured the density of involucrin bands.

Test [5] relates to human prostate cancer cell line. The following applies: cited from earlier work.
The subject of test [6] is thyroid anaplastic carcinoma cell lines. As to conditions: four thyroid anaplastic carcinoma cell lines; cited from earlier work.
Test [7] has as its system murine squamous cell carcinoma (SCC) tumor model. As to conditions: in vitro and in vivo; cited from earlier work.
Test [8] concerns PTHrP production in SCC 2/88 cells. The following applies: Merryman et al 1993, cited from earlier work.
Another test has as its system SCC 2/88 cells. Briefly: Growth of SCC 2/88 cells by fluorescence DNA concentration analysis. It counts as cell-based, canine. The following applies: three-day treatment. From the text:
Cell culture. […] Each experiment was run in triplicate.

Test [9] concerns PTHrP mRNA in SCC 2/88 cells. Put plainly: Northern blot analysis of PTHrP mRNA expression in SCC 2/88 cells. The test is classed as cell-based, canine.

Consider `C=C1/C(=C\C=C2/CCC[C@]3(C)[C@@H]([C@H](C)CCCC(C)(C)O)CC[C@@H]23)C[C@@H](O)C[C@@H]1O` [1,25(OH)2D3], for which, in the test with osteosarcoma cell lines, the alkaline phosphatase activity result is reported as “increases alkaline phosphatase activity in one cell line”, the osteocalcin production result is “osteocalcin production in two lines” and the “type I collagen production” value is “type I collagen production in three lines”. Moreover, the anti-proliferative activity entry in test [1] is “anti-proliferative activity in some human and rat liver cancer cell lines”. Further, in test [2], the “TGF-β mRNA expression compared to vehicle-treated control” value was “did not differ significantly”. In addition, the PTHrP production entry in [3] is “inhibits PTHrP production”. Moreover, in test [4], the “involucrin expression (anti-involucrin reactive bands) compared to vehicle” value (“involucrin expression … compared to vehicle” below) is recorded as “diminished involucrin expression” and the “involucrin expression (anti-involucrin reactive bands)” value is “diminished involucrin expression”. The “cell growth and differentiation” value in [5] was “inhibits cell growth and promotes differentiation in a dose-dependent manner”. Also, in [6], the cell growth result is listed as “diphasic cell growth in three of the four cell lines”. In addition, the antitumor effects entry in test [7] is “significant antitumor effects”. For the same molecule, the “PTHrP production in SCC 2/88 cells” value in test [8] is listed as “promote PTHrP production”. Moreover, in [8] (listed as 1,25-(OH)2D3), the “PTHrP production in SCC 2/88 cells” value is “stimulates production of parathyroid hormone-related protein”. Further, the “growth of SCC 2/88 cells (concentration of DNA)” value (“growth of SCC 2/88 cells” for short) with SCC 2/88 cells (10^−7 M) was “inhibit cell proliferation; also recorded: significantly reduced the concentration of DNA”.

As for `C=C1/C(=C\C=C2/CCC[C@]3(C)[C@@H]([C@H](C)OCCC(C)(C)O)CC[C@@H]23)C[C@@H](O)C[C@@H]1O` [22-oxacalcitriol], the cell growth result in [6] is on record as “dose-dependent inhibition of cell growth in all four of the cell lines”.

Take `C=C1/C(=C\C=C2/CCC[C@]3(C)[C@@H]([C@H](C)/C=C/C=C/C(O)(CC)CC)CC[C@@H]23)C[C@@H](O)C[C@@H]1O` [EB 1089, 22,24-diene-24a,26a,27a-trihomo-1α,25-dihydroxyvitamin D3]: in [4], the “involucrin expression … compared to vehicle” value is “more weakly defined than that of the vehicle-treated control; also recorded: diminished involucrin expression; also recorded: weak or substantially absent anti-involucrin reactive bands”. Further, the “involucrin expression (anti-involucrin reactive bands)” value in test [4] is “diminished involucrin expression; also recorded: diminished levels of involucrin”. Besides, the “PTHrP production in SCC 2/88 cells” value in test [8] is listed as “promote PTHrP production”. Further, the entries for the “growth of SCC 2/88 cells” value in the test with SCC 2/88 cells (10^−7 M) and with SCC 2/88 cells (10^−9 M) were “inhibit cell proliferation; also recorded: significantly reduced the concentration of DNA; also recorded: significantly diminished cell growth” and “inhibits cell growth significantly; also recorded: significantly reduced the concentration of DNA; also recorded: reduced cell growth at a lower confidence level”, respectively.

As for `C=C1C(=CC=C2CCCC3(C)C(C(C)CC#CC(C)(C)O)=CCC23)CC(O)CC1O` (stereo not drawn) [analog V, 1,25-dihydroxy-16-ene-23-yne-vitamin D], in test [4], the “involucrin expression … compared to vehicle” value was “more weakly defined than that of the vehicle-treated control; also recorded: diminished involucrin expression; also recorded: weak or substantially absent anti-involucrin reactive bands” and the “involucrin expression (anti-involucrin reactive bands)” value is on record as “more intense than those of the other treated groups; also recorded: stronger anti-involucrin reactive band”. For the same molecule, in [8], the “PTHrP production in SCC 2/88 cells” value is recorded as “promote PTHrP production”. In the test with SCC 2/88 cells (10^−7 M), the “growth of SCC 2/88 cells” value is recorded as “inhibit cell proliferation; also recorded: significantly reduced the concentration of DNA; also recorded: significantly diminished cell growth”. Also, in the test on SCC 2/88 cells (10^−9 M), the “growth of SCC 2/88 cells” value is “no significant inhibition of cell growth”.

With TGF-β, the “increase in PTHrP mRNA compared to vehicle-treated control” value in test [9] (TGF-β 1.5 ng/mL, 6, 12 and 24 hr) is on record as 5- to 20 fold. Besides, in test [9] (TGF-β, after 24 hr), the “increase in PTHrP mRNA compared with vehicle-treated control” value is recorded as 2- to 20 fold.
